# Test results published in US20260232693A1, “IMPROVING GLYMPHATIC-LYMPHATIC EFFLUX” (UNIVERSITY OF ROCHESTER, priority 2023, published 2026).
# Entries after “also recorded” stand apart in the source; their conditions may differ.
# Legend:
# Format in all cases: in vivo, C57BL/6 mice
# [1] = test system: superficial cervical lymph vessels; assay: DB53 brain clearance assay (intrastriatal injection, brain retention and femoral vein signal)
# Method: Clearance assay was conducted using our published method (Pla, V. et al. A real-time in vivo clearance assay for quantification of glymphatic efflux. Cell Rep 40, 111320 (2022)). Briefly, anesthetized mice were mounted in a stereotactic apparatus and a small burr hole was made (AP+0.6 mm; ML-2.0 mm). A guide cannula (26G, […] SPC, 4.5 mm below pedestal) and dummy cannula ([…], 0.1 mm projection) was placed at DV 3.3 mm. After 48 hr, the dummy cannula was replaced by the inner cannula (33G, […]/SP, 0.1 mm projection), connected by a PE10 tubing to a 10 μL Hamilton syringe containing 4% (w/v) DB53 in sterile aCSF. The left femoral vein was exposed via skin resection and was placed under a fluorescent macroscope (microscope: MVX10, Olympus; light: PRIOR Lumen 1600-LED; camera: Flash 4.0 digital, Hamamatsu). The pump infusion (1 μL, […]) was triggered simultaneously with the imaging over the vein, once every 15 min for 2 h for the intraparenchymal delivery. […] At the end of the experiment, animals were decapitated, and their brains were harvested for postmortem analysis. For quantitative image analysis for femoral vein and ex vivo in the brain is the same as described in Pla, V. et al. A real-time in vivo clearance assay for quantification of glymphatic efflux. Cell Rep 40, 111320 (2022).
# [2] = test system: cervical lymphatic vessels (cLVs); assay: 2P-OPTIC two-photon imaging with particle tracking of cervical lymphatic vessel contraction and flow, before and after topical PGF2α; details: for decrease in retrograde fraction / ejection rate / increase in ejection fraction / increase in ejection volume / median vessel diameter: after vs before PGF2α; for retrograde fraction after PGF2α / ejection fraction after PGF2α: mean±SEM; for increase in intrinsic pulsation rate: after vs before topical PGF2α 5 μM
# [3] = Measurement of vital signs (heart and respiratory rate) before and after PGF2α; details: topical PGF2α; young and old mice
# Method: Heart and respiratory rate were measured using a small animal physiological monitoring 494 device (Harvard Apparatus) which acquired measurements at 1 kHz and 250 Hz, respectively. The signals were digitized and recorded with a DigiData 1550A digitizer and AxoScope software 496 (Axon Instruments).
# [4] = test system: cervical lymph nodes (cLNs); assay: Ex vivo cervical lymph node imaging of OVA-647 accumulation; details: 90 min
# Method: One microliter PBS with or without 5 μM PGF2a was applied directly onto the cervical lymph vessel simultaneously with the injection of OVA-647 (0.5% w/v, 45 kDa, Invitrogen, 10 μL, 2 μL/min) into cisterna magna for 90 min. Then the superficial and deep cervical lymph nodes were dissected and put on the microscope slices (Fisherbrand). The lymph nodes were placed under the macroscope (MVX10 Research Macro Zoom Microscope, 633 Olympus). The images were acquired in the far-red emission channel (647 nm).
# [5] = test system: cervical lymphatic vessels (cLVs); assay: Epi-fluorescent macroscopic imaging of OVA-647 CSF tracer drainage in cervical lymphatic vessels; details: 60 min imaging, 5 μM PGF2α topical
# Method: Ovalbumin-conjugated to Alexa Fluor 647 (OVA-647, 0.5% w/v, 45 kDa, Invitrogen, 10 μL, 2 μL/min) was injected into the cisterna magna through a 30G needle connected to PE-10 tubing using a syringe pump (Harvard Apparatus). Cervical lymphatic vessels were surgically exposed as before and imaged using a fluorescent macroscope (MVX10, Olympus) with a PRIOR Lumen 1600-LED light source and ORCA Flash 4.0 digital camera (Hamamatsu) using Metamorph software. The images at 20× magnification from the far-red emission channel (647 nm) were collected at 1 min intervals for 60 min following the start of the injection. Exposure time was kept constant across all the experimental groups. One microliter PBS with or without 5 μM PGF2a was applied directly onto the cervical lymph vessel simultaneously with the injection of OVA-647 into cisterna magna.
compound,measurement,setting,value
"CCCCC[C@H](O)/C=C/[C@@H]1[C@@H](C/C=C\CCCC(=O)O)[C@@H](O)C[C@H]1O [PGF2α, prostaglandin F2α]",DB53 signal in the femoral vein,"[1]; 75 min, control 4.6±0.8",8.3±1.3
same,DB53 signal in the femoral vein,"[1]; 90 min, control 5.5±0.6",10.3±1.5
same,DB53 signal in the femoral vein,"[1]; 105 min, control 6.6±0.7",10.8±1.4
same,DB53 signal in the femoral vein,"[1]; 120 min, control 6.8±0.7",11.45±8.3
same,"DB53 signal in the femoral vein (brain clearance to plasma), overall vs control",[1]; 2 h imaging,dramatically increased
same,DB53 retained in the brain (% area of DB53 fluorescence),"[1]; after intrastriatal DB53, control 10.1±1.3, mean±SEM",6.3±0.9 % area
same,decrease in retrograde fraction,[2]; 2-month-old mice,64.2%
same,ejection rate,[2]; 2-month-old mice,no change
same,increase in ejection fraction,[2]; 2-month-old mice,7.0%
same,increase in ejection volume,[2]; 2-month-old mice,148.6%
same,median vessel diameter,[2]; 2-month-old mice,decreased
same,retrograde fraction after PGF2α,"[2]; 2-month-old mice, before: 8.1±1.0",2.9±0.6%
same,ejection fraction after PGF2α,"[2]; 2-month-old mice, before: 90.8±0.8",97.1±0.6%
same,increase in CSF drainage (number of microsphere particles detected in cLVs),"[2]; 2-month-old mice, intracisternal fluorescent microspheres",35.4%
same,decrease in retrograde fraction,[2]; 22-month-old mice,83.6%
same,ejection rate,[2]; 22-month-old mice,no change
same,increase in ejection fraction,[2]; 22-month-old mice,31.7%
same,increase in ejection volume,[2]; 22-month-old mice,181.4%
same,median vessel diameter,[2]; 22-month-old mice,decreased
same,retrograde fraction after PGF2α,"[2]; 22-month-old mice, before: 27.5±2.1",4.5±0.4%
same,ejection fraction after PGF2α,"[2]; 22-month-old mice, before: 72.5±2.1",95.5±0.5%
same,solute arriving to the cLN (particle count) compared to untreated aged controls,"[2]; aged mice, intracisternal fluorescent microspheres",~4 times
same,increase in intrinsic pulsation rate,[2]; old (22-month-old) mice,152.0%
same,increase in flow speeds,"[2]; old mice, after vs before topical PGF2α",3.5 fold
same,contraction amplitude (Δd),[2]; vs before PGF2α,increased
same,increase in intrinsic pulsation rate,[2]; young (2-month-old) mice,50.7%
same,increase in downstream speed,"[2]; young mice, after vs before topical PGF2α",103.1%
same,respiratory rate,[3],did not induce changes; also recorded: unaffected
same,"accumulation of OVA647 in cLNs, ex vivo",[4]; 2-month-old mice,significantly larger accumulation
same,"accumulation of OVA647 in cLNs, ex vivo",[4]; 22-month-old mice,significantly larger accumulation
same,CSF drainage of OVA647 tracer (fluorescence intensity in cLVs),[5]; old (22-month-old) mice,promoted robust CSF drainage
same,CSF drainage of OVA647 tracer (fluorescence intensity in cLVs),[5]; young mice,promoted robust CSF drainage
